The numbers were not newly measured in patent US9222055B2, “High intensity fragrances” (TAKASAGO INTERNATIONAL CORPORATION, priority 2009, dated 2015), which cites them from elsewhere.

The conditions of series [1]: for Readily biodegradable: Table 1.
The conditions of series [2]: Table 1, measured value where available.
The conditions of series [3]: evidence from prior art.
Setting [4] is: Table 19, ingredients of Comparative Fragrance K.
The mark [5] stands for this setting: Table 18, ingredients of Comparative Fragrance J.

Read-outs that look alike come from different tables or passages of the source.

Take `COc1ccc(C=O)cc1` [ANISIC ALDEHYDE, anisic aldehyde]: the Readily biodegradable result in series [1] is on record as “Yes”.
`CCCCOC(C)=O` [BUTYL ACETATE, butyl acetate]: the Readily biodegradable entry in series [1] is “Yes”. In series [2], the log partition coefficient (LogP) is 1.78.
Consider `CC(=O)OCc1ccccc1` [BENZYL ACETATE, benzyl acetate], for which the biodegradability classification result in series [1] (OECD 301B or OECD 301F, Test Plan for Benzyl Derivatives) was “readily biodegradable”. In series [1], the Readily biodegradable result is listed as “Yes”. Also, the Bio-Degradable result in series [1] (setting [4]) is on record as “Yes”.
As to `CC=Cc1ccc(O)c(OC)c1` [isoeugenol], the allergen classification entry in series [3] is listed as “strong allergens”.
Take `CCCCCCC1CCC(=O)O1` (stereo not shown) [DECALACTONE GAMMA, decalactone gamma]: in series [1], the Readily biodegradable result was “Yes”. For the same compound, the LogP in series [2] was 2.72.
Turning to `CC1=CCC(C(C)(C)O)CC1` (stereo not drawn) [TERPINEOL, ALPHA, alpha-terpineol], the Readily biodegradable entry in series [1] is recorded as “No”. Further, in series [2], the lipophilicity (LogP) is 2.98.
With `CCCCCCOC(C)=O` [HEXYL ACETATE, hexyl acetate], the Readily biodegradable result in series [1] is listed as “Yes”.
Regarding `CCCCCC1C(=O)CCC1CC(=O)OC` (stereo not shown) [Methyldihydrojasmonate], the Bio-Degradable result in series [1] (setting [4]) is reported as “Yes”.
With `COc1cc(C=O)ccc1O` [VANILLIN, vanillin], the Readily biodegradable entry in series [1] is on record as “Yes”. The Bio-Degradable entry in series [1] (setting [4]) is “Yes”.
As for `C=C(C)[C@H]1CC=C(C)CC1` [LIMONENE, limonene], the Readily biodegradable entry in series [1] is “No”. The LogP in series [2] is 4.57.
With `CC(C)=CCCC(C)=CC=O` [CITRAL, citral], the biodegradability classification entry in series [1] (OECD 301B, The Terpene Consortium Robust Summary) is given as “readily biodegradable”. Also, the Readily biodegradable result in series [1] was “Yes”. Besides, the allergen classification entry in series [3] is “strong allergens”.
Turning to `CC(=O)OCCc1ccccc1` [PHENYLETHYL ACETATE, 2-phenylethyl acetate], in series [1], the Readily biodegradable entry was “Yes”. In addition, in series [2], the log partition coefficient (LogP) is given as 2.30.
For the compound `C=CCOC(=O)CCCCC` [ALLYL HEXANOATE, allyl hexanoate], the Readily biodegradable result in series [1] was “Yes”.
For the compound `CCCCCOC(=O)CC` [n-AMYL PROPIONATE, n-amyl propionate], in series [1], the Readily biodegradable entry is reported as “Yes”. Moreover, in series [2], the LogP is 2.66.
As to `CCCCC/C(C=O)=C/c1ccccc1` [Amyl cinnamic aldehyde], in series [3], the allergen classification result is “strong allergens”.
`CCCCCC1COCCC1OC(C)=O` (stereo not shown) [Tetrahydro-3-penthyl-2H-pyran-4-yl acetate]: in series [1] (setting [5]), the Bio-Degradable result is on record as “Yes”.
Turning to `CC(C)=CCCC(C)CCO` (stereo not shown) [CITRONELLOL, citronellol], the biodegradability classification entry in series [1] (OECD 301F, The Terpene Consortium Robust Summary) was “readily biodegradable”. In addition, the Readily biodegradable result in series [1] is “Yes”.
As to `CCOC(=O)CC` [ETHYL PROPIONATE, ethyl propionate], the Readily biodegradable entry in series [1] is recorded as “Yes”. For the same compound, in series [2], the log partition coefficient (LogP) is given as 1.21.
As to `CC/C=C\CCOC(=O)CC` [CIS-3-HEXENYL PROPIONATE, cis-3-hexenyl propionate], the Readily biodegradable entry in series [1] was “Yes”.
As for `C=CC(C)(CCC=C(C)C)OC(C)=O` (stereo not shown) [Linalyl acetate], the Bio-Degradable result in series [1] (setting [4]) was “No”.
On to `O=C/C=C/c1ccccc1` [CINNAMIC ALDEHYDE, cinnamic aldehyde], for which the Readily biodegradable entry in series [1] is on record as “Yes”. In addition, in series [3], the allergen classification result was “strong allergens”.
Turning to `COc1ccc(C)cc1` [Cresyl methyl ether], in series [1] (setting [4]), the Bio-Degradable entry is given as “Yes”.
In the case of `CCCCCC(=O)OCC` [ETHYL CAPROATE, ethyl caproate], in series [1], the Readily biodegradable result is “Yes”.
As for `CCCC(=O)OCC` [ETHYL BUTYRATE, ethyl butyrate], the Readily biodegradable entry in series [1] is on record as “Yes”. In series [2], the log partition coefficient (LogP) is reported as 1.73.
Turning to `CC/C=C\CCOC(C)=O` [CIS-3-HEXENYL ACETATE, cis-3-hexenyl acetate], the Readily biodegradable result in series [1] is reported as “Yes”. Also, the LogP in series [2] is reported as 2.34.
Regarding `CCCc1ccc(O)c(OC)c1` [Dihydroeugenol], the Bio-Degradable entry in series [1] (setting [4]) is “No”.
As for `CCCCC1CCC(=O)O1` (stereo not shown) [OCTALACTONE, GAMMA, octalactone gamma], in series [1], the Readily biodegradable entry is reported as “Yes”.
In the case of `Cc1occc(=O)c1O` [VELTOL ™, 3-hydroxy-2-methyl-4-pyrone], in series [1], the Readily biodegradable entry is “Yes”.
For `CCCCCCC(C=O)=Cc1ccccc1` [Hexyl Cinnamic Aldehyde], the Bio-Degradable result in series [1] (setting [5]) is reported as “Yes”.
For the compound `COC(=O)c1ccccc1N` [METHYL ANTHRANILATE, methyl anthranilate], the Readily biodegradable entry in series [1] is on record as “Med”.
Turning to `CCCCCOC(C)=O` [n-AMYL ACETATE, n-amyl acetate], in series [1], the Readily biodegradable entry is “Yes”. The lipophilicity (LogP) in series [2] is 2.30.
For `OCc1ccccc1` [BENZYL ALCOHOL, benzyl alcohol], the Readily biodegradable entry in series [1] is “Yes”.
`CC(C)CC1CC(C)(O)CCO1` (stereo not shown) [2-isobutyl-4-methyltetrahydro-2H-pyran-4-ol]: the Bio-Degradable result in series [1] (setting [4]) is “No”.
Turning to `CC(=O)/C=C/C1C(C)=CCCC1(C)C` (stereo not drawn) [Alpha ionone], in series [1] (setting [4]), the Bio-Degradable result is on record as “No”.
In the case of `C=CC(C)(O)CCC=C(C)C` (stereo not shown) [LINALOOL, linalool], the Readily biodegradable entry in series [1] is “No”. For the same compound, the Bio-Degradable entry in series [1] (setting [5]) and in series [1] (setting [4]) was “No” each time.
With `CCCCCCC(=O)OCC` [ETHYL HEPTANOTE, ethyl heptanoate], the Readily biodegradable result in series [1] is recorded as “Yes”.
Take `O=C(OCc1ccccc1)c1ccccc1O` [Benzyl Salicylate]: the Bio-Degradable entry in series [1] (setting [5]) is “No”.
In the case of `CCCC(=O)OC(C)(C)Cc1ccccc1` [Dimethyl benzyl carbonyl butyrate], the Bio-Degradable result in series [1] (setting [5]) was “No”.
As to `CC(C=O)Cc1ccc(C(C)(C)C)cc1` (stereo not drawn) [Para tert-butyl-alpha Methyl hydrocinnamic Aldehyde], the Bio-Degradable entry in series [1] (setting [5]) is reported as “No”. The allergen classification entry in series [3] is listed as “strong allergens”.
Consider `OCCc1ccccc1` [PHENYLETHYL ALCOHOL, 2-phenylethylalcohol], for which, in series [1], the Readily biodegradable entry was “Yes”. For the same compound, the Bio-Degradable result in series [1] (setting [4]) is recorded as “Yes”.
For the compound `CCC/C=C/C=O` [TRANS-2-HEXENAL, trans-2-hexenal], in series [1], the Readily biodegradable entry is reported as “Yes”.
In the case of `CC(C)[C@@H]1CC[C@@H](C)C[C@H]1O` [L-MENTHOL, L-menthol], the Readily biodegradable entry in series [1] is on record as “No”.
As to `O=C1CCCCCCCCCCCC(=O)OCCO1` [Ethylene brassylate], the Bio-Degradable entry in series [1] (setting [5]) and in series [1] (setting [4]) was “Yes” in each case.
For `CCOC(=O)C12CCCC1C1CCC2C1` (stereo not shown) [Ethyl tricyclodecan-2-carboxylate], the Bio-Degradable entry in series [1] (setting [5]) was “No”.
Take `COC(=O)c1ccccc1O` [METHYL SALICYLATE, methyl salicylate]: the Readily biodegradable result in series [1] is reported as “Yes”.
On to `CCCCCCCCCCCC=O` [Dodecanal], for which the Bio-Degradable entry in series [1] (setting [4]) is “Yes”.
For `O=Cc1ccc2c(c1)OCO2` [HELIOTROPINE, heliotropine], in series [2], the LogP is 1.05.
As to `CCCCCCCC(=O)OCC` [ETHYL CAPRYLATE, ethyl caprylate], in series [1], the Readily biodegradable result is recorded as “Yes”.
`CCOC(=O)CC(C)=O` [Ethyl acetoaceteate]: in series [1] (setting [4]), the Bio-Degradable entry is listed as “Yes”.
With `CCCCCCOC(=O)c1ccccc1O` [Hexyl salicylate], the Bio-Degradable result in series [1] (setting [4]) is listed as “Yes”.
`CC(=O)OCCC(C)C` [ISOAMYL ACETATE, isoamyl acetate]: in series [1], the Readily biodegradable result is listed as “Yes”. Further, in series [2], the LogP is listed as 2.25.
With `C=CCCCCCCCCC=O` [Undecelenic aldehyde], the Bio-Degradable result in series [1] (setting [4]) was “Yes”.
Take `CC(=O)/C(C)=C/C1C(C)=CCCC1(C)C` (stereo not shown) [Gamma methyl ionone]: the Bio-Degradable entry in series [1] (setting [4]) is listed as “No”.
Take `OC/C=C/c1ccccc1` [CINNAMIC ALCOHOL, cinnamic alcohol]: the Readily biodegradable result in series [1] was “Yes”. Moreover, the allergen classification entry in series [3] was “strong allergens”. Moreover, the log partition coefficient (LogP) in series [2] was 1.95.
Take `CC1=CCC(O)(C(C)C)CC1` (stereo not shown) [1-terpinen-4-ol]: in series [1], the Readily biodegradable entry is “No”. Besides, the log partition coefficient (LogP) in series [2] is recorded as 3.26.
Take `CC(C)=CCCC(C)=CCCC(C)=CCO` [farnesol]: in series [3], the allergen classification result is recorded as “strong allergens”.

As a reminder, the LogP is a log measure of how a compound divides between an organic and an aqueous phase.
